Test results reported in ChEMBL document CHEMBL1201862, “PubChem BioAssay data set” (2004).
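Assay format: 96-well plates, 48-hour exposure. GI50 marks 50% less growth.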 Active and inactive are the calls of the source. No stated cut-off is given here; in the data, active = GI50 up to about 1.1 µM and inactive = higher.

Tests used:
Assay in all cases: NCI anticancer screen, dose series, 48 h
CCRF-CEM = test system: CCRF-CEM
Malme-3M = test system: Malme-3M
HCT-15 = test system: HCT-15
SF-539 = test system: SF-539
IGROV-1 = test system: IGROV-1
K562 = test system: K562
NCI-H23 = test system: NCI-H23
A549 = test system: A549
SK-MEL-28 = test system: SK-MEL-28
NCI-H460 = test system: NCI-H460
UACC-257 = test system: UACC-257
HT-29 = test system: HT-29
U-251 = test system: U-251
SK-MEL-5 = test system: SK-MEL-5
SNB-75 = test system: SNB-75
SF-268 = test system: SF-268
SK-OV-3 = test system: SK-OV-3
UACC-62 = test system: UACC-62
OVCAR-3 = test system: OVCAR-3
RXF 393 = test system: RXF 393

Measured: GI50

O=C(O)C(Br)Cc1ccc2c(c1)OCO2 (stereo not given)
inactive: CCRF-CEM > 100 µM | Malme-3M 40.7 µM | SF-539 > 100 µM | IGROV-1 > 100 µM | K562 > 100 µM | NCI-H23 > 100 µM | A549 > 100 µM | SK-MEL-28 > 100 µM | NCI-H460 > 100 µM | UACC-257 > 100 µM | HT-29 > 100 µM | U-251 > 100 µM | SK-MEL-5 > 100 µM | SNB-75 20.9 µM | SF-268 > 100 µM | SK-OV-3 > 100 µM | UACC-62 62.1 µM | OVCAR-3 > 100 µM | RXF 393 71.9 µM
> 100 µM: HCT-15
